According to patent US9630941B2 (priority 2008, dated 2017):

Assays:
[1] = Aqueous solubility, pH dependent; type: physicochemical
[2] = Chemical stability pH dependent at 25° C.; type: physicochemical
Method: B. Chemical Stability pH Dependent at 25° C.

[3] = Thermal stability, 120° C. for 10 min; type: physicochemical; conditions: for CBN content of the sample after heating / Drug remaining / THC content of the sample after heating / Drug remaining (%): 120° C. for 10 min; for Drug remaining (%): % of initial; for CBN content of the sample, initial / Initial, μg (drug itself) / THC content of the sample, initial: before heating
Method: C. Thermal Stability—120° C. for 10 min.

[4] = Bioreversion: plasma stability, porcine plasma; type: in vitro ADME
[5] = Porcine buccal tissue homogenate stability; type: in vitro ADME; conditions: protein concentration 2 mg/ml
Method: (§1) b. Porcine Buccal Tissue Homogenate Stability
(§2) Protein Concentration 2 mg/ml

[6] = Control (IPBS) stability for the buccal homogenate study; type: physicochemical
Method: as §1, §2

| Compound | Aqueous Solubility ([1]; pH 1.2) [µg/mL] | Aqueous Solubility ([1]; pH 2) [µg/mL] | Aqueous Solubility ([1]; pH 3) [µg/mL] | Aqueous Solubility ([1]; pH 4) [µg/mL] | First order rate constant ([2]; Buffer pH 5.0, 25° C.) | First order rate constant ([2]; Buffer pH 7.0, 25° C.) | First order rate constant ([2]; Buffer pH 9.0, 25° C.) | First order rate constant ([2]; Water, 25° C.) | Drug loading (%) [3] [%] | CBN content of the sample after heating [3] [µg] | Drug remaining [3] [µg] | THC content of the sample after heating [3] [µg] | Drug remaining (%) [3] | CBN content of the sample, initial [3] [µg] | Initial, μg (drug itself) [3] [µg] | THC content of the sample, initial [3] [µg] | K [4] | T1/2 [4] | K [5] | K [6] | also measured |
| --- | --- | --- | --- | --- | --- | --- | --- | --- | --- | --- | --- | --- | --- | --- | --- | --- | --- | --- | --- | --- | --- |
| CCCCCc1cc(OC(=O)[C@@H](N)C(C)C)c2c(c1)OC(C)(C)C1CCC(C)=CC21.O=C(O)CC(=O)O (stereo partly drawn) [THC-Valinate malonate] | 53.63 ± 1.09 | 118.42 ± 5.07 | 50.03 ± 1.80 | 13.92 ± 1.56 |  |  |  |  |  |  |  |  |  |  |  |  |  |  |  |  | Aqueous Solubility ([1]; H20): 1.21 ± 0.61 µg/mL; Aqueous Solubility ([1]; Water): 2.33 ± 1.19 µM; Aqueous Solubility ([1]; pH 1.2, listed as THC-Valine malonate): 103.61 ± 2.11 µM; Aqueous Solubility ([1]; pH 2, listed as THC-Valine malonate): 228.78 ± 9.79 µM; Aqueous Solubility ([1]; pH 3, listed as THC-Valine malonate): 96.65 ± 3.49 µM; Aqueous Solubility ([1]; pH 4, listed as THC-Valine malonate): 26.88 ± 3.01 µM; Aqueous Solubility ([1]; pH 5): 1.22 ± 0.00 µg/mL; Aqueous Solubility ([1]; pH 5, listed as THC-Valine malonate): 2.36 ± 0.01 µM; Aqueous Solubility ([1]; pH 6): 0.13 ± 0.02 µg/mL; Aqueous Solubility ([1]; pH 6, listed as THC-Valine malonate): 0.25 ± 0.04 µM; Aqueous Solubility ([1]; pH 7): 0.05 ± 0.02 µg/mL; Aqueous Solubility ([1]; pH 7, listed as THC-Valine malonate): 0.11 ± 0.03 µM; Aqueous Solubility ([1]; pH 8): 0.06 ± 0.00 µg/mL; Aqueous Solubility ([1]; pH 8, listed as THC-Valine malonate): 0.12 ± 0.01 µM; Aqueous Solubility ([1]; pH 9): 0.14 ± 0.02 µg/mL; Aqueous Solubility ([1]; pH 9, listed as THC-Valine malonate): 0.27 ± 0.03 µM |
| CCCCCc1cc(OC(=O)CNC)c2c(c1)OC(C)(C)[C@@H]1CCC(C)=C[C@@H]21 [THC-Sarcosinate (7), Δ^9-THC-sarcosinate] | 101.38 ± 29.22 | 151.75 ± 9.33 | 96.52 ± 2.84 | 50.74 ± 1.98 | 38.35 ± 4.32 ×10^−3 h^−1 | 605.61 ± 125.14 ×10^−3 h^−1 | 1209.25 ± 203.05 ×10^−3 h^−1 | 25.45 ± 21.99 ×10^−3 h^−1 | 79.82 ± 0.85 | 33.83 ± 0.97 | 841.38 ± 40.18 | 54.53 ± 3.35 | (70.30 ± 4.10) % | 40.05 ± 3.45 | 1197.24 ± 12.69 | 26.68 ± 3.80 | 63.16 ± 10.44 ×10^−2 min^−1 | 1.11 ± 0.18 min | 37.36 ± 3.87 ×10^−3 min^−1 | 23.47 ± 1.60 ×10^−3 min^−1 | Aqueous Solubility ([1]; pH 1.2, listed as THC-Sarcosine): 263.16 ± 75.84 µM; Aqueous Solubility ([1]; pH 2, listed as THC-Sarcosine): 393.89 ± 24.21 µM; Aqueous Solubility ([1]; pH 3, listed as THC-Sarcosine): 250.54 ± 7.38 µM; Aqueous Solubility ([1]; pH 4, listed as THC-Sarcosine): 131.70 ± 5.13 µM; Aqueous Solubility ([1]; pH 5): 7.14 ± 0.72 µg/mL; Aqueous Solubility ([1]; pH 5, listed as THC-Sarcosine): 18.54 ± 1.87 µM; Aqueous Solubility ([1]; pH 6): 0.53 ± 0.07 µg/mL; Aqueous Solubility ([1]; pH 6, listed as THC-Sarcosine): 1.38 ± 0.18 µM |
| CCCCCc1cc(OC(=O)[C@@H](N)CCC(N)=O)c2c(c1)OC(C)(C)[C@@H]1CCC(C)=C[C@@H]21 [THC-Glutaminate (9), Δ^9-THC-glutaminate] | 59.55 ± 0.02 | 162.82 ± 14.39 | 46.29 ± 1.13 | 22.24 ± 2.20 | 70.23 ± 0.92 ×10^−3 h^−1 | 153.42 ± 4.26 ×10^−3 h^−1 | 756.35 ± 106.61 ×10^−3 h^−1 | 32.72 ± 15.19 ×10^−3 h^−1 | 63.41 ± 2.57 |  | 721.31 ± 73.76 |  | (75.75 ± 4.69) % |  | 951.08 ± 38.55 |  | 53.41 ± 5.84 ×10^−2 min^−1 | 1.31 ± 0.14 min | 40.41 ± 3.30 ×10^−3 min^−1 | 26.30 ± 0.14 ×10^−3 min^−1 | Aqueous Solubility ([1]; H20): 1.61 ± 0.76 µg/mL; Aqueous Solubility ([1]; Water): 3.63 ± 1.72 µM; Aqueous Solubility ([1]; pH 1.2, listed as THC-Glutamine): 134.25 ± 0.05 µM; Aqueous Solubility ([1]; pH 2, listed as THC-Glutamine): 367.06 ± 32.44 µM; Aqueous Solubility ([1]; pH 3, listed as THC-Glutamine): 104.36 ± 2.55 µM; Aqueous Solubility ([1]; pH 4, listed as THC-Glutamine): 50.13 ± 4.97 µM; Aqueous Solubility ([1]; pH 5): 5.76 ± 0.02 µg/mL; Aqueous Solubility ([1]; pH 5, listed as THC-Glutamine): 12.99 ± 0.04 µM; Aqueous Solubility ([1]; pH 6): 2.15 ± 0.32 µg/mL; Aqueous Solubility ([1]; pH 6, listed as THC-Glutamine): 4.84 ± 0.72 µM; Aqueous Solubility ([1]; pH 7): 0.52 ± 0.06 µg/mL; Aqueous Solubility ([1]; pH 7, listed as THC-Glutamine): 1.18 ± 0.14 µM; Aqueous Solubility ([1]; pH 8): 0.34 ± 0.33 µg/mL; Aqueous Solubility ([1]; pH 8, listed as THC-Glutamine): 0.76 ± 0.74 µM; Aqueous Solubility ([1]; pH 9): 0.16 ± 0.02 µg/mL; Aqueous Solubility ([1]; pH 9, listed as THC-Glutamine): 0.35 ± 0.04 µM; T1/2 [5]: 17.21 ± 1.40 min |
| CCCCCc1cc(OC(=O)[C@@H](N)Cc2ccc(O)cc2)c2c(c1)OC(C)(C)[C@@H]1CCC(C)=C[C@@H]21 [THC-Tyrosinate (11), Δ^9-THC-tyrosinate] | 41.92 ± 2.14 | 15.76 ± 0.66 | 5.28 ± 1.78 | 0.73 ± 0.03 | 6.32 ± 3.14 ×10^−3 h^−1 | 25.02 ± 0.88 ×10^−3 h^−1 | 53.88 ± 11.36 ×10^−3 h^−1 | 9.40 ± 0.88 ×10^−3 h^−1 | 81.51 ± 4.28 | 24.42 ± 0.21 | 1138.93 ± 60.67 | 123.75 ± 2.69 | (93.15 ± 0.06) % | 35.68 ± 1.16 | 1222.61 ± 64.25 | 92.95 ± 3.08 | 93.53 ± 8.79 ×10^−2 min^−1 | 0.74 ± 0.07 min | 21.52 ± 0.55 ×10^−3 min^−1 | 1.11 ± 0.04 ×10^−3 min^−1 | Aqueous Solubility ([1]; pH 1.2, listed as THC-Tyrosine): 87.76 ± 4.48 µM; Aqueous Solubility ([1]; pH 2, listed as THC-Tyrosine): 33.00 ± 1.38 µM; Aqueous Solubility ([1]; pH 3, listed as THC-Tyrosine): 11.06 ± 3.73 µM; Aqueous Solubility ([1]; pH 4, listed as THC-Tyrosine): 1.52 ± 0.06 µM; T1/2 [5]: 32.21 ± 0.81 min |
| CCCCCc1cc(OC(=O)CCCc2ccc(NC(=O)CCC(=O)O)cc2)c2c(c1)OC(C)(C)[C@@H]1CCC(C)=C[C@@H]21 [THC-APB-HS (14), THC-4(4-aminophenyl)butyrate-hemisuccinate] |  |  |  |  | 0.00368 h⁻¹ | Stable | Stable | 0.00481 h⁻¹ | 96.66 ± 2.18 | 38.36 ± 9.70 | 1518.84 ± 34.38 | 0 | (104.81 ± 4.74) % | 47.63 ± 9.92 | 1449.90 ± 32.76 | 0 | Stable | Stable |  |  |  |
| CCCCCc1cc(OC(=O)[C@@H](N)Cc2c[nH]c3ccccc23)c2c(c1)OC(C)(C)[C@@H]1CCC(C)=C[C@@H]21 [THC-Tryptophanate (10), Δ^9-THC-tryptophinate] |  |  |  |  | 0.00829 h⁻¹ | 0.03803 h⁻¹ |  |  | 89.84 ± 4.53 | 16.63 ± 2.63 | 1216.70 ± 32.88 | 96.10 ± 16.64 | (90.47 ± 7.00) % | 25.59 ± 2.26 | 1347.57 ± 67.93 | 97.38 ± 6.39 | 48.55 ± 5.90 ×10^−2 min^−1 | 1.44 ± 0.17 min | 9.06 ± 1.26 ×10^−3 min^−1 | 0.77 ± 0.02 ×10^−3 min^−1 | T1/2 [5]: 77.27 ± 10.73 min |
| CCCCCc1cc(OC(=O)C(N)Cc2c[nH]c3ccccc23)c2c(c1)OC(C)(C)C1CCC(C)=CC21.O=C(O)CC(=O)O (stereo not drawn) [THC-Tryptophanate Malonate] | 1.58 ± 0.19 | 4.65 ± 0.31 |  |  |  |  |  |  |  |  |  |  |  |  |  |  |  |  |  |  | Aqueous Solubility ([1]; H20): 13.27 ± 14.72 µg/mL; Aqueous Solubility ([1]; Water): 8.02 ± 8.90 µM; Aqueous Solubility ([1]; pH 1.2, listed as THC-Tryptophan Malonate): 0.95 ± 0.12 µM; Aqueous Solubility ([1]; pH 2, listed as THC-Tryptophan Malonate): 2.81 ± 0.19 µM |
